Data as given in PubChem BioAssay AID330 (DTP/NCI, 2004).
Values joined by “and” are separate entries in the source; they are usually repeats but may differ in a detail not shown here. Equal values may be shown once. Inconclusive results and toxic doses are left out. How the source made its calls: active means survival T/C of 150% or more; inactive means T/C below 125% in these data.

Test system: P388 leukemia ip, CD2F1 mice, survival T/C
Experiment: NCI In Vivo Anticancer Drug Screen. Data for tumor model P388 Leukemia (intraperitoneal) in CD2F1 (CDF1) mice
Conditions: endpoint: median survival time, higher = longer survival
Summary of the method: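 Mice carrying the transplanted tumor received test compound or vehicle. Survival was recorded in each group, and the value is the treated-group measurement divided by that of the vehicle-treated control group.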

[1] = dose: 100.0 mg/kg/injection, schedule: Q04DX003 (ip), vehicle: saline with Tween-80
[2] = dose: 200.0 mg/kg/injection, schedule: Q04DX003 (ip), vehicle: saline with Tween-80
[3] = dose: 12.5 mg/kg/injection, schedule: Q01DX009 (ip), vehicle: saline with Tween-80
[4] = dose: 25.0 mg/kg/injection, schedule: Q01DX009 (ip), vehicle: saline with Tween-80
[5] = dose: 50.0 mg/kg/injection, schedule: Q01DX009 (ip), vehicle: saline with Tween-80
[6] = dose: 100.0 mg/kg/injection, schedule: Q01DX009 (ip), vehicle: saline with Tween-80
[7] = dose: 200.0 mg/kg/injection, schedule: Q01DX009 (ip), vehicle: saline with Tween-80
[8] = dose: 50.0 mg/kg/injection, schedule: Q01DX005 (ip), vehicle: saline with Tween-80
[9] = dose: 100.0 mg/kg/injection, schedule: Q01DX005 (ip), vehicle: saline with Tween-80
[10] = dose: 200.0 mg/kg/injection, schedule: Q01DX005 (ip), vehicle: saline with Tween-80
[11] = dose: 100.0 mg/kg/injection, schedule: Q01DX001 (ip), vehicle: Klucel (hydroxypropylcellulose) (HPC)
[12] = dose: 200.0 mg/kg/injection, schedule: Q01DX001 (ip), vehicle: Klucel (hydroxypropylcellulose) (HPC)

Measured: T/C

CCCCCC(Cn1ccnc1)c1ccc(Cl)cc1Cl (centres undefined)
inactive: [1] 99 % of control | [2] 94 % of control | dose: 400.0 mg/kg/injection, schedule: Q04DX003 (ip), vehicle: saline with Tween-80 89 % of control

CCOC(=O)C1(C(=O)OCC)COC(C)(C)OC1
inactive: [3] 105 % of control | [4] 101 % of control and 97 % of control | [5] 102 % of control and 106 % of control | [6] 106 % of control and 108 % of control | dose: 100.0 mg/kg/injection, schedule: Q04DX003 (ip), vehicle: saline 100 % of control | [7] 98 % of control and 103 % of control | dose: 200.0 mg/kg/injection, schedule: Q04DX003 (ip), vehicle: saline 101 % of control | dose: 400.0 mg/kg/injection, schedule: Q04DX003 (ip), vehicle: saline 100 % of control | dose: 600.0 mg/kg/injection, schedule: Q04DX003 (ip), vehicle: saline 101 % of control

Cc1cc(C(=C2C=CC(=Nc3ccc(S(=O)(=O)O)cc3)C=C2)c2ccc(Nc3ccc(S(=O)(=O)O)cc3)cc2)cc(S(=O)(=O)O)c1N
inactive: dose: 50.0 mg/kg/injection, schedule: Q01DX005 (ip), vehicle: suspension in saline 102 % of control | dose: 100.0 mg/kg/injection, schedule: Q01DX005 (ip), vehicle: suspension in saline 99 % of control | dose: 200.0 mg/kg/injection, schedule: Q01DX005 (ip), vehicle: suspension in saline 99 % of control

N#CN=[N+]([O-])c1cccc(Cl)c1
inactive: dose: 3.12 mg/kg/injection, schedule: Q01DX009 (ip), vehicle: Klucel (hydroxypropylcellulose) (HPC) 101 % of control | dose: 6.25 mg/kg/injection, schedule: Q01DX009 (ip), vehicle: Klucel (hydroxypropylcellulose) (HPC) 108 % of control | dose: 6.25 mg/kg/injection, schedule: Q04DX003 (ip), vehicle: Klucel (hydroxypropylcellulose) (HPC) 101 % of control | dose: 12.5 mg/kg/injection, schedule: Q01DX009 (ip), vehicle: Klucel (hydroxypropylcellulose) (HPC) 98 % of control | dose: 12.5 mg/kg/injection, schedule: Q04DX003 (ip), vehicle: Klucel (hydroxypropylcellulose) (HPC) 104 % of control | dose: 25.0 mg/kg/injection, schedule: Q04DX003 (ip), vehicle: Klucel (hydroxypropylcellulose) (HPC) 91 % of control

NS(=O)(=O)c1nc2nc[nH]c(=O)c2[nH]1
inactive: [8] 100 % of control | [9] 106 % of control | [10] 101 % of control

CCCCCCCCCCCCCCCCCCOC(=O)C1CCCN1 (centres undefined)
inactive: dose: 100.0 mg/kg/injection, schedule: Q04DX002 (ip), vehicle: Klucel (hydroxypropylcellulose) (HPC) 101 % of control | dose: 200.0 mg/kg/injection, schedule: Q04DX002 (ip), vehicle: Klucel (hydroxypropylcellulose) (HPC) 99 % of control | dose: 400.0 mg/kg/injection, schedule: Q04DX002 (ip), vehicle: Klucel (hydroxypropylcellulose) (HPC) 94 % of control

Cc1cccc(Cl)c1NC(=O)CSCCN(C)C
inactive: dose: 60.0 mg/kg/injection, schedule: Q01DX005 (ip), vehicle: Klucel (hydroxypropylcellulose) (HPC) 106 % of control | dose: 120.0 mg/kg/injection, schedule: Q01DX005 (ip), vehicle: Klucel (hydroxypropylcellulose) (HPC) 103 % of control

O=C1CC(=O)N2C=CC=CC2N1 (centres undefined)
inactive: dose: 25.0 mg/kg/injection, schedule: Q01DX009 (ip), vehicle: Klucel (hydroxypropylcellulose) (HPC) 106 % of control | dose: 50.0 mg/kg/injection, schedule: Q01DX009 (ip), vehicle: Klucel (hydroxypropylcellulose) (HPC) 106 % of control | dose: 100.0 mg/kg/injection, schedule: Q01DX009 (ip), vehicle: Klucel (hydroxypropylcellulose) (HPC) 97 % of control | dose: 200.0 mg/kg/injection, schedule: Q01DX009 (ip), vehicle: Klucel (hydroxypropylcellulose) (HPC) 97 % of control

Cc1ccc(S(=O)(=O)Oc2ccc3oc4c(CO)ccc(NCCN(C)C)c4c(=O)c3c2)cc1
inactive: [8] 97 % of control | [9] 96 % of control | [10] 96 % of control

CCCCNC1=CC(=O)c2ccccc2C1=O
inactive: dose: 50.0 mg/kg/injection, schedule: Q04DX003 (ip), vehicle: saline with Tween-80 99 % of control | [1] 92 % of control | [2] 88 % of control

OCC1OC(n2c(Cl)nc3ccccc32)C(O)C1O (centres undefined)
inactive: dose: 60.0 mg/kg/injection, schedule: Q01DX005 (ip), vehicle: saline 100 % of control | dose: 120.0 mg/kg/injection, schedule: Q01DX005 (ip), vehicle: saline 103 % of control | dose: 240.0 mg/kg/injection, schedule: Q01DX005 (ip), vehicle: saline 98 % of control

O=C(NO)C1(Br)CCCCC1Br (centres undefined)
inactive: [11] 91 % of control

Nc1nnc(/C=C/c2ccccc2)o1
inactive: dose: 60.0 mg/kg/injection, schedule: Q01DX005 (ip), vehicle: saline with Tween-80 117 % of control | dose: 120.0 mg/kg/injection, schedule: Q01DX005 (ip), vehicle: saline with Tween-80 107 % of control | dose: 240.0 mg/kg/injection, schedule: Q01DX005 (ip), vehicle: saline with Tween-80 109 % of control

NSc1ccc([N+](=O)[O-])cc1
inactive: dose: 25.0 mg/kg/injection, schedule: Q01DX001 (ip), vehicle: other 109 % of control | dose: 50.0 mg/kg/injection, schedule: Q01DX001 (ip), vehicle: other 100 % of control

CN(N=C1C(N)=NN=C1N)c1ccccc1
inactive: dose: 50.0 mg/kg/injection, schedule: Q04DX002 (ip), vehicle: saline with Tween-80 106 % of control | dose: 100.0 mg/kg/injection, schedule: Q04DX002 (ip), vehicle: saline with Tween-80 93 % of control | dose: 200.0 mg/kg/injection, schedule: Q04DX002 (ip), vehicle: saline with Tween-80 100 % of control

CS(=O)(=O)OCC1OCC(OS(C)(=O)=O)C1O (centres undefined)
inactive: dose: 50.0 mg/kg/injection, schedule: Q01DX001 (ip), vehicle: Klucel (hydroxypropylcellulose) (HPC) 101 % of control | [11] 102 % of control | [12] 101 % of control

CC(C)=CCN=c1ncn(CCC(N)C(=O)O)c2nc[nH]c12 (centres undefined)
inactive: dose: 3.0 mg/kg/injection, schedule: Q01DX009 (ip), vehicle: Klucel (hydroxypropylcellulose) (HPC) 109 % of control | dose: 6.0 mg/kg/injection, schedule: Q01DX009 (ip), vehicle: Klucel (hydroxypropylcellulose) (HPC) 105 % of control | dose: 12.0 mg/kg/injection, schedule: Q01DX009 (ip), vehicle: Klucel (hydroxypropylcellulose) (HPC) 115 % of control | dose: 24.0 mg/kg/injection, schedule: Q01DX009 (ip), vehicle: Klucel (hydroxypropylcellulose) (HPC) 118 % of control | dose: 48.0 mg/kg/injection, schedule: Q01DX009 (ip), vehicle: Klucel (hydroxypropylcellulose) (HPC) 108 % of control

Nc1nnc2nc(C(C(=O)/C=C\c3cccc(O)c3)c3nc4nnc(N)n4[nH]c3=O)c(=O)[nH]n12
inactive: [8] 95 % of control | [9] 94 % of control | [10] 100 % of control

CC(C)(C)C(=O)Oc1ccc(Br)cc1
inactive: [11] 106 % of control | [12] 106 % of control | dose: 400.0 mg/kg/injection, schedule: Q01DX001 (ip), vehicle: Klucel (hydroxypropylcellulose) (HPC) 108 % of control

CCOC(=O)c1ccc(NC(=O)O/N=C/c2ccncc2)cc1
inactive: dose: 6.25 mg/kg/injection, schedule: Q01DX009 (ip), vehicle: saline with Tween-80 88 % of control | [3] 112 % of control | [4] 88 % of control | [5] 93 % of control | [6] 94 % of control | [7] 90 % of control

CCOC(=O)NC1CCC2(C)CCCCC2C1 (centres undefined)
inactive: dose: 50.0 mg/kg/injection, schedule: Q01DX009 (ip), vehicle: saline 100 % of control | dose: 100.0 mg/kg/injection, schedule: Q01DX009 (ip), vehicle: saline 97 % of control | dose: 200.0 mg/kg/injection, schedule: Q01DX009 (ip), vehicle: saline 109 % of control
